According to ChEMBL document CHEMBL1201862, “PubChem BioAssay data set” (2004):
The source made the active and inactive calls.

Legend:
[1] = target: T1, Zinc finger protein mex-5 (Caenorhabditis elegans, UniProt Q9XUB2); test: potency of MEX-5 RNA-binding blockers – biochemical, C. elegans, fluorescence polarization, dose response (AID 1960)
T1 sequence (Q9XUB2 whole entry): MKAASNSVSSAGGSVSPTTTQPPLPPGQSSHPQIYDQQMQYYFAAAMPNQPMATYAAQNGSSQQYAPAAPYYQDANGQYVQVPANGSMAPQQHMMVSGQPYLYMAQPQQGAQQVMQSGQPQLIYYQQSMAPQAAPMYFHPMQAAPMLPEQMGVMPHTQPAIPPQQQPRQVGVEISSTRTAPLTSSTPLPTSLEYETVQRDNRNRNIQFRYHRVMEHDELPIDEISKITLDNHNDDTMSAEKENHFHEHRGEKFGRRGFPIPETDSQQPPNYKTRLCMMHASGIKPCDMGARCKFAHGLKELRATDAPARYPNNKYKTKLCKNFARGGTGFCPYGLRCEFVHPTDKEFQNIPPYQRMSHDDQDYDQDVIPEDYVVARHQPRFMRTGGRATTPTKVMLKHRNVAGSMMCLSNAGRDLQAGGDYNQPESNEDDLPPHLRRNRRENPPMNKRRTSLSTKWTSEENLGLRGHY

[2] = target: Dual specificity tyrosine-phosphorylation-regulated kinase 1A (Rattus norvegicus, UniProt Q63470); assay type: biochemical, Homo sapiens
[3] = target: Polyadenylate-binding protein 1 (Homo sapiens, UniProt P11940); test: MLLE binding blockers, Cy5 peptide tracer – biochemical, fluorescence polarization, Cy5-PAM2 peptide, secondary, miRNA deadenylation inhibitor project, dose response (AID 602260); assay type: functional; conditions: read-out: IC50_Mean
Chain of Polyadenylate-binding protein 1 (P11940 whole entry): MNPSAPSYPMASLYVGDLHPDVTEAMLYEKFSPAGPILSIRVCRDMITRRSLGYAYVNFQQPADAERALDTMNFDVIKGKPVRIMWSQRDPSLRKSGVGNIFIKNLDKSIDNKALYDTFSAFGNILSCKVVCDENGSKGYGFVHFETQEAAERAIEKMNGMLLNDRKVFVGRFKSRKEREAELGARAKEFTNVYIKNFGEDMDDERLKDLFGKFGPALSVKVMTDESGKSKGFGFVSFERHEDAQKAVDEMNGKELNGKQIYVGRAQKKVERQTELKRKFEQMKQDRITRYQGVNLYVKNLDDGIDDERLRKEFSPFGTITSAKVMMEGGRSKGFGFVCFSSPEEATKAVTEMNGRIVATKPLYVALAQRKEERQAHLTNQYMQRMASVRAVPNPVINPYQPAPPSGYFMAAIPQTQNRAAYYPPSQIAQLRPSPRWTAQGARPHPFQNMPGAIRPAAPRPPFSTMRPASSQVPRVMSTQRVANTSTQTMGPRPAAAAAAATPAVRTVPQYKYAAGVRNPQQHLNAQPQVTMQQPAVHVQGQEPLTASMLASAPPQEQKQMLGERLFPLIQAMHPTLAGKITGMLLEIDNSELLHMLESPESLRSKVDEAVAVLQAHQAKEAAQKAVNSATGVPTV

For `CN1CCc2cc3c(c4c2[C@H]1[C@H](O)c1ccccc1-4)OCO3`, which EC50 [1] is on record?
The EC50 was 8.45 µM (inconclusive).

And the AC50 [2]?
The AC50 was 0.877 µM (active).

And the IC50 [3]?
The IC50 was > 66 µM (inactive).
